Laboratory results reported in the NIST ThermoML archive (doi:10.1021/je9005882).
± gives the expanded uncertainty stated by the source.

Assay: excess molar enthalpy (molar enthalpy of mixing); xn = mol fraction of the nth substance listed
Details: 303.15 K, 101 kPa, Liquid

BrCBr [dibromomethane] + c1ccccc1
Details	excess molar enthalpy [kcal/mol]
x1 = 0.0931	0.00956 ± 0.000956
x1 = 0.253	0.0196 ± 0.00143
x1 = 0.3416	0.0241 ± 0.00143
x1 = 0.4618	0.0284 ± 0.00167
x1 = 0.5464	0.0318 ± 0.00167
x1 = 0.6705	0.0311 ± 0.00167
x1 = 0.7405	0.0304 ± 0.00167
x1 = 0.8394	0.0237 ± 0.00143
x1 = 0.9506	0.0098 ± 0.000956

BrCBr [dibromomethane] + O=C1CCCN1
Details	excess molar enthalpy [kcal/mol]
x1 = 0.0955	-0.0918 ± 0.00382
x1 = 0.151	-0.134 ± 0.00526
x1 = 0.2158	-0.177 ± 0.00669
x1 = 0.2999	-0.216 ± 0.00813
x1 = 0.4044	-0.246 ± 0.00908
x1 = 0.5247	-0.241 ± 0.00884
x1 = 0.613	-0.22 ± 0.00813
x1 = 0.7203	-0.174 ± 0.00669
x1 = 0.7913	-0.127 ± 0.00502
x1 = 0.8401	-0.0968 ± 0.00382
x1 = 0.9084	-0.0507 ± 0.00239

BrCBr [dibromomethane] + C[S+](C)[O-]
Details	excess molar enthalpy [kcal/mol]
x1 = 0.062	-0.0507 ± 0.00239
x1 = 0.1162	-0.0856 ± 0.00359
x1 = 0.2682	-0.175 ± 0.00669
x1 = 0.3407	-0.201 ± 0.00741
x1 = 0.4342	-0.227 ± 0.00837
x1 = 0.503	-0.24 ± 0.00884
x1 = 0.5251	-0.242 ± 0.00884
x1 = 0.6466	-0.228 ± 0.00837
x1 = 0.7285	-0.202 ± 0.00765
x1 = 0.8234	-0.152 ± 0.00574
x1 = 0.8934	-0.103 ± 0.00406

BrCBr [dibromomethane] + CO
Details	excess molar enthalpy [kcal/mol]
x1 = 0.1506	0.0433 ± 0.00406
x1 = 0.2779	0.0978 ± 0.00765
x1 = 0.3148	0.113 ± 0.00837
x1 = 0.4026	0.138 ± 0.01
x1 = 0.504	0.153 ± 0.011
x1 = 0.6195	0.169 ± 0.012
x1 = 0.7224	0.187 ± 0.0131
x1 = 0.921	0.154 ± 0.011
x1 = 0.9515	0.111 ± 0.00837
x1 = 0.9781	0.0583 ± 0.00502
